According to ChEMBL document CHEMBL1157572 (J Med Chem, 2010):

Key:
[1] = tested on: MKN-45; test: Antiproliferative activity against human MKN45 cells after 72 hrs by methylene blue dye assay; format: functional, cell-based; settings: MKN-45, 72 h
[2] = Antiproliferative activity against P-gp170/MDR expressing human KBVIN cells after 72 hrs by methylene blue dye assay; format: functional, cell-based
[3] = tested on: KB; test: Antiproliferative activity against human KB cells after 72 hrs by methylene blue dye assay; format: functional, cell-based
[4] = tested on: HT-29; test: Antiproliferative activity against human HT-29 cells after 72 hrs by methylene blue dye assay; format: functional, cell-based; settings: HT-29, 72 h
[5] = tested on: NCI-H460; test: Antiproliferative activity against human H460 cells after 72 hrs by methylene blue dye assay; format: functional, cell-based; settings: NCI-H460, 72 h
[6] = Inhibition of tubulin polymerization by turbidimetric assay
[7] = Displacement of [3H]colchicine from tubulin by at 5 uM scintillation proximity assay
[8] = Displacement of [3H]colchicine from tubulin by at 1 uM scintillation proximity assay

| IC50 [1] [nM] | IC50 [3] [nM] | IC50 [4] [nM] | IC50 [5] [nM] | Structure (SMILES) | IC50 [2] [nM] | IC50 [6] [nM] | Activity [7] [%] | Activity [8] [%] |
| --- | --- | --- | --- | --- | --- | --- | --- | --- |
| > 10000 | > 10000 | > 10000 | > 10000 | COc1cc(C(=O)c2ccc3cccnc3c2)cc(OC)c1OC | > 10000 |  |  |  |
| 617 | 830 | 872 | 1100 | COc1cc(C(=O)c2ccc3c(ccc[n+]3[O-])c2)cc(OC)c1OC | 764 |  |  |  |
| 16.3 | 24 | 24.6 | 36 | COc1cc(C(=O)c2ccc3ncccc3c2)cc(OC)c1OC | 21.5 | 2900 | 72 | 51 |
| > 10000 | > 10000 | > 10000 | > 10000 | COc1cc(C(=O)c2ccc3c(ccc[n+]3C)c2)cc(OC)c1OC | > 10000 |  |  |  |
| 562 | 1800 | 1000 | 1600 | COc1cc(C(=O)c2cnc3ccccc3c2)cc(OC)c1OC | 1100 |  |  |  |
| 138 | 301 | 206 | 256 | COc1ccc2cc(C(=O)c3cc(OC)c(OC)c(OC)c3)ccc2n1 | 202 | > 10000 |  |  |
| 147 | 155 | 162 | 193 | COc1cc(C(=O)c2ccnc3c(OC)cccc23)cc(OC)c1OC | 165 |  |  |  |
| 246 | 174 | 148 | 180 | COc1cc(C(=O)c2ccc3ccccc3n2)cc(OC)c1OC | 117 | > 10000 |  |  |
| 3200 | 8100 | 4500 | 5000 | COc1cc(C(=O)c2cccc3cccnc23)cc(OC)c1OC | 6000 |  |  |  |
| 1200 | 2900 | 2800 | 3800 | COc1cc(C(=O)c2cccc3ncccc23)cc(OC)c1OC | 2300 |  |  |  |

| Structure (SMILES) | IC50 [1] [nM] | IC50 [3] [nM] | IC50 [4] [nM] | IC50 [5] [nM] | IC50 [2] [nM] | IC50 [6] [nM] | Activity [7] [%] | Activity [8] [%] |
| --- | --- | --- | --- | --- | --- | --- | --- | --- |
| COc1ccc(/C=C\c2cc(OC)c(OC)c(OC)c2)cc1O [COMBRETASTATIN A4] | 4.9 | 2.4 | 835 | 2.6 | 1.9 | 2100 | 95 | 87 |
| COc1ccc2nc(C(=O)c3cc(OC)c(OC)c(OC)c3)ccc2c1 | 150 | 27.2 | 77 | 61.5 | 21.5 | 3500 | 68 | 40 |
| COc1cc(C(=O)c2ccnc3ccccc23)cc(OC)c1OC | 920 | 3500 | 2300 | 3800 | 2200 |  |  |  |
| COc1cc(C(=O)c2ccc3c(N)c(OC)ccc3n2)cc(OC)c1OC | 0.3 | 0.3 | 0.4 | 0.4 | 0.2 | 1600 | 97 | 90 |
